Source: the RepoRT retention time repository (doi:10.1039/c4mb00346b)

Test: HILIC, Merck SeQuant ZIC-pHILIC, 150 × 2.1 mm, 5 µm, 0.1 mL/min, estimated dead time 3.3 min; A: acetonitrile; B: water + 10 mM ammonium carbonate; gradient (min/%B) 0/20 30/80
Conditions: stereoisomer not certain

Row | SMILES | LC retention time [min]
1 | C[N+](C)(C)CC(=O)[O-] [Betaine] | 8.6
2 | O=P(O)(O)OCC1OC(O)(CO)C(O)C1O (stereo unspecified) [Fructose-6-phosphate] | 13.3
3 | CC(=O)NC(CCC[NH+]=C(N)N)C(=O)[O-] (stereo unspecified) [N-Acetyl-arginine] | 12.3
4 | COC(=O)C(N)CCC(=O)O (stereo unspecified) [Glutamate methyl ester] | 7.1
5 | O=C(O)C1(O)CC(O)C(O)C(O)C1 (stereo unspecified) [Quinic acid] | 10.4
6 | O=c1[nH]cnc2c1ncn2C1OC(CO)C(O)C1O (stereo unspecified) [Inosine] | 8.2
7 | Nc1ncnc2c1ncn2C1OC(CSCCC([NH3+])C(=O)[O-])C(O)C1O (stereo unspecified) [S-Adenosyl-homocysteine] | 11.2
8 | NC(=O)c1ncn(C2OC(COP(=O)(O)O)C(O)C2O)c1N (stereo unspecified) [AICAR] | 12.7
9 | O=C(O)C1OC(OP(=O)(O)OP(=O)(O)OCC2OC(n3ccc(=O)[nH]c3=O)C(O)C2O)C(O)C(O)C1O (stereo unspecified) [UDP-glucuronate] | 16.5
10 | Cn1c(N)nc2c(ncn2C2OC(CO)C(O)C2O)c1=O (stereo unspecified) [1-Methyl-guanosine] | 7.1
11 | O=C(O)C(O)C(O)C(O)C(O)COP(=O)(O)O (stereo unspecified) [6-Phosphogluconate] | 15
12 | Nc1ncnc2c1ncn2C1OC2COP(=O)(O)OC2C1O (stereo unspecified) [3',5'-cAMP] | 7.1
13 | O=C(CO)C(O)C(O)C(O)C(O)COP(=O)(O)O (stereo unspecified) [Sedoheptulose-7-phosphate] | 13.7
14 | Nc1ncnc2c1ncn2C1OC(COP(=O)(O)OP(=O)(O)OP(=O)(O)O)C(O)C1O (stereo unspecified) [ATP] | 13.8
15 | CCCCCCCCCC(=O)OC(CC(=O)[O-])C[N+](C)(C)C (stereo unspecified) [Decanoyl-carnitine] | 4.2
16 | C[N+](C)(C)C(Cc1c[nH]c2ccccc12)C(=O)[O-] (stereo unspecified) [Trimethyl-tryptophan (hypaphorine)] | 6
17 | C[S+](CCC(N)C(=O)[O-])CC1OC(n2cnc3c(N)ncnc32)C(O)C1O (stereo unspecified) [S-Adenosyl-methionine] | 14.2
18 | C[N+](C)(C)C(Cc1cnc([S-])[nH]1)C(=O)O (stereo unspecified) [Ergothioneine] | 12.1
19 | CCC(C)C(N)C(=O)O (stereo unspecified) [Isoleucine] | 8.6
20 | NC1C(O)OC(CO)C(O)C1O (stereo unspecified) [Glucosamine] | 11.6
21 | NC(Cc1cnc[nH]1)C(=O)O (stereo unspecified) [Histidine] | 12

Row | SMILES | LC retention time [min]
22 | Nc1ncnc2c1ncn2C1OC(COP(=O)(O)OP(=O)(O)O)C(O)C1O (stereo unspecified) [ADP] | 12.4
23 | O=C(O)CCCC(=O)O [Glutarate] | 12
24 | NC(CCCC(=O)O)C(=O)O (stereo unspecified) [2-Aminoadipate] | 12.2
25 | NC(=O)c1ccc[n+](C2OC(COP(=O)(O)OP(=O)(O)OCC3OC(n4cnc5c(N)ncnc54)C(O)C3O)C(O)C2O)c1 (stereo unspecified) [NAD+] | 11.9
26 | Nc1ccn(C2OC(CO)C(O)C2O)c(=O)n1 (stereo unspecified) [Cytidine] | 9.1
27 | Nc1ncnc2c1ncn2C1OC(CSCC(N)C(=O)O)C(O)C1O (stereo unspecified) [S-adenosyl-cysteine] | 10.6
28 | O=C(O)C=CC(=O)O [Fumarate] | 13.1
29 | NCCCC(N)C(=O)O (stereo unspecified) [Ornithine] | 20.8
30 | O=C(O)CCC(=O)C(=O)O [2-Oxoglutarate] | 12.9
31 | O=C(O)C(COP(=O)(O)O)OP(=O)(O)O (stereo unspecified) [Diphospho-glycerate] | 15.6
32 | Nc1ccn(C2OC(COP(=O)(O)O)C(O)C2O)c(=O)n1 (stereo unspecified) [CMP] | 13.2
33 | NC(=O)C1=CN(C2OC(COP(=O)(O)OP(=O)(O)OCC3OC(n4cnc5c(N)ncnc54)C(OP(=O)(O)O)C3O)C(O)C2O)C=CC1 (stereo unspecified) [NADPH] | 14.8
34 | NC(=O)c1ccc[n+](C2OC(COP(=O)(O)OP(=O)(O)OCC3OC(n4cnc5c(N)ncnc54)C(OP(=O)(O)O)C3O)C(O)C2O)c1 (stereo unspecified) [NADP+] | 14.4
35 | O=C(O)CCC(=O)O [Succinate] | 12.6
36 | OCC1OC(O)C(O)C(O)C1O (stereo unspecified) [Glucose] | 12
37 | CC(C)CC(=O)OC(CC(=O)[O-])C[N+](C)(C)C (stereo unspecified) [Isovaleryl-carnitine] | 5.4
38 | CSc1ncc(CC(C(=O)[O-])[N+](C)(C)C)[nH]1 (stereo unspecified) [S-Methyl-ergothioneine] | 7.9
39 | CCC(NC(=O)CCC(N)C(=O)O)C(=O)NCC(=O)O (stereo unspecified) [Ophthalmic acid] | 11.2
40 | NC(CCCCNC(CCC(=O)O)C(=O)O)C(=O)O (stereo unspecified) [Saccharopine] | 13.3
41 | Nc1c(C(=O)NC(CC(=O)O)C(=O)O)ncn1C1OC(COP(=O)(O)O)C(O)C1O (stereo unspecified) [SAICAR] | 17.1
